Laboratory results reported in BindingDB's records for doi:10.1016/s0028-3908(05)80009-7 (Universit&Eacute, 1994).
Where a SMILES comes first, the peptide text is derived from it. [ ]: non-standard residue; d: D form. ξ: configuration not given here. Ile(3ξ) = CCC(C)[C@H](N)C(=O)O

biological target: T1, Pituitary adenylate cyclase-activating polypeptide (Rattus norvegicus, UniProt P13589)
T1 sequence (P13589 whole entry): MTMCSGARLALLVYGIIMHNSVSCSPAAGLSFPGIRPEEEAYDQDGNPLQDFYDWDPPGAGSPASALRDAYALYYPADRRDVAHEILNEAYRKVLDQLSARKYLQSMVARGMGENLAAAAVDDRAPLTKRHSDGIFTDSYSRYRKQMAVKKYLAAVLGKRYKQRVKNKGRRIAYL

With `CC[C@H](C)[C@H](NC(=O)CNC(=O)[C@H](CC(=O)O)NC(=O)[C@H](C)NC(=O)[C@@H](N)Cc1cnc[nH]1)C(=O)N[C@@H](Cc1ccccc1)C(=O)N[C@H](C(=O)N[C@@H](CC(=O)O)C(=O)N[C@@H](CO)C(=O)N[C@@H](Cc1ccc(O)cc1)C(=O)N[C@@H](CO)C(=O)N[C@@H](CCCNC(=N)N)C(=O)N[C@@H](Cc1ccc(O)cc1)C(=O)N[C@@H](CCCNC(=N)N)C(=O)N[C@@H](CCCCN)C(=O)N[C@@H](CCC(N)=O)C(=O)N[C@@H](CCSC)C(=O)N[C@@H](C)C(=O)N[C@H](C(=O)N[C@@H](CCCCN)C(=O)N[C@@H](CCCCN)C(=O)N[C@@H](Cc1ccc(O)cc1)C(=O)N[C@@H](CC(C)C)C(=O)N[C@@H](C)C(=O)N[C@@H](C)C(=O)N[C@H](C(=O)N[C@@H](CC(C)C)C(N)=O)C(C)C)C(C)C)[C@@H](C)O` [[Ala2]PACAP(1-27)] as the compound, how does the Ki read?
Its Ki is 0.0003 µM.

How did the Ki turn out when `CC[C@H](C)[C@H](NC(=O)CNC(=O)[C@H](CC(=O)O)NC(=O)[C@H](CO)NC(=O)[C@@H](N)Cc1ccccc1)C(=O)N[C@@H](Cc1ccccc1)C(=O)N[C@H](C(=O)N[C@@H](CC(=O)O)C(=O)N[C@@H](CO)C(=O)N[C@@H](Cc1ccc(O)cc1)C(=O)N[C@@H](CO)C(=O)N[C@@H](CCCN=C(N)N)C(=O)N[C@@H](Cc1ccc(O)cc1)C(=O)N[C@@H](CCCN=C(N)N)C(=O)N[C@@H](CCCCN)C(=O)N[C@@H](CCC(N)=O)C(=O)N[C@@H](CCSC)C(=O)N[C@@H](C)C(=O)N[C@H](C(=O)N[C@@H](CCCCN)C(=O)N[C@@H](CCCCN)C(=O)N[C@@H](Cc1ccc(O)cc1)C(=O)N[C@@H](CC(C)C)C(=O)N[C@@H](C)C(=O)N[C@@H](C)C(=O)N[C@H](C(=O)N[C@@H](CC(C)C)C(N)=O)C(C)C)C(C)C)[C@@H](C)O` [[Phe1]PACAP(1-27)] was run?
Its Ki is 0.6 µM.

`CCC(C)[C@H](NC(=O)CNC(=O)[C@H](CC(=O)O)NC(=O)[C@@H](N)CO)C(=O)N[C@@H](Cc1ccccc1)C(=O)N[C@H](C(=O)N[C@@H](CC(=O)O)C(=O)N[C@@H](CO)C(=O)N[C@@H](Cc1ccc(O)cc1)C(=O)N[C@@H](CO)C(=O)N[C@@H](CCCN=C(N)N)C(=O)N[C@@H](Cc1ccc(O)cc1)C(=O)N[C@@H](CCCN=C(N)N)C(=O)N[C@@H](CCCCN)C(=O)N[C@@H](CCC(N)=O)C(=O)N[C@@H](CCSC)C(=O)N[C@@H](C)C(=O)N[C@H](C(=O)N[C@@H](CCCCN)C(=O)N[C@@H](CCCCN)C(=O)N[C@@H](Cc1ccc(O)cc1)C(=O)N[C@@H](CC(C)C)C(=O)N[C@@H](C)C(=O)N[C@@H](C)C(=O)N[C@H](C(=O)N[C@@H](CC(C)C)C(=O)NCC(=O)N[C@@H](CCCCN)C(=O)N[C@@H](CCCN=C(N)N)C(=O)N[C@@H](Cc1ccc(O)cc1)C(=O)N[C@@H](CCCCN)C(=O)N[C@@H](CCC(N)=O)C(=O)N[C@@H](CCCN=C(N)N)C(=O)N[C@H](C(=O)N[C@@H](CCCCN)C(=O)N[C@@H](CC(N)=O)C(=O)N[C@@H](CCCCN)C(N)=O)C(C)C)C(C)C)C(C)C)[C@@H](C)O` (stereo partly specified) [PACAP(2-38)] (H-SDG[Ile(3ξ)]FTDSYSRYRKQMAVKKYLAAVLGKRYKQRVKNK-NH2) was tested. Which Ki did it give?
The Ki was 0.003 µM.

How did the Ki turn out when `CC[C@H](C)[C@H](NC(=O)CNC(=O)[C@H](CC(=O)O)NC(=O)[C@H](CCCN=C(N)N)NC(=O)[C@@H](N)Cc1cnc[nH]1)C(=O)N[C@@H](Cc1ccccc1)C(=O)N[C@H](C(=O)N[C@@H](CC(=O)O)C(=O)N[C@@H](CO)C(=O)N[C@@H](Cc1ccc(O)cc1)C(=O)N[C@@H](CO)C(=O)N[C@@H](CCCN=C(N)N)C(=O)N[C@@H](Cc1ccc(O)cc1)C(=O)N[C@@H](CCCN=C(N)N)C(=O)N[C@@H](CCCCN)C(=O)N[C@@H](CCC(N)=O)C(=O)N[C@@H](CCSC)C(=O)N[C@@H](C)C(=O)N[C@H](C(=O)N[C@@H](CCCCN)C(=O)N[C@@H](CCCCN)C(=O)N[C@@H](Cc1ccc(O)cc1)C(=O)N[C@@H](CC(C)C)C(=O)N[C@@H](C)C(=O)N[C@@H](C)C(=O)N[C@H](C(=O)N[C@@H](CC(C)C)C(=O)NCC(=O)N[C@@H](CCCCN)C(=O)N[C@@H](CCCN=C(N)N)C(=O)N[C@@H](Cc1ccc(O)cc1)C(=O)N[C@@H](CCCCN)C(=O)N[C@@H](CCC(N)=O)C(=O)N[C@@H](CCCN=C(N)N)C(=O)N[C@H](C(=O)N[C@@H](CCCCN)C(=O)N[C@@H](CC(N)=O)C(=O)N[C@@H](CCCCN)C(N)=O)C(C)C)C(C)C)C(C)C)[C@@H](C)O` [[Arg2]PACAP(1-38)] was run?
The Ki was 0.01 µM.

For `CC[C@H](C)[C@H](NC(=O)CNC(=O)[C@H](CC(=O)O)NC(=O)[C@@H](C)NC(=O)[C@@H](N)Cc1cnc[nH]1)C(=O)N[C@@H](Cc1ccccc1)C(=O)N[C@H](C(=O)N[C@@H](CC(=O)O)C(=O)N[C@@H](CO)C(=O)N[C@@H](Cc1ccc(O)cc1)C(=O)N[C@@H](CO)C(=O)N[C@@H](CCCN=C(N)N)C(=O)N[C@@H](Cc1ccc(O)cc1)C(=O)N[C@@H](CCCN=C(N)N)C(=O)N[C@@H](CCCCN)C(=O)N[C@@H](CCC(N)=O)C(=O)N[C@@H](CCSC)C(=O)N[C@@H](C)C(=O)N[C@H](C(=O)N[C@@H](CCCCN)C(=O)N[C@@H](CCCCN)C(=O)N[C@@H](Cc1ccc(O)cc1)C(=O)N[C@@H](CC(C)C)C(=O)N[C@@H](C)C(=O)N[C@@H](C)C(=O)N[C@H](C(=O)N[C@@H](CC(C)C)C(N)=O)C(C)C)C(C)C)[C@@H](C)O` [[DAla2]PACAP(1-27)], which Ki is on record?
Its Ki is 0.008 µM.

For H-SYSRYRKQMAVKKYLAAVL-NH2 [PACAP(9-27)], which Ki is on record?
Its Ki is 2 µM.

For `CC[C@H](C)[C@H](NC(=O)CNC(=O)[C@H](CC(=O)O)NC(=O)[C@H](CO)NC(=O)[C@@H](N)Cc1cnc[nH]1)C(=O)N[C@@H](Cc1ccccc1)C(=O)N[C@H](C(=O)N[C@@H](CC(=O)O)C(=O)N[C@@H](CO)C(=O)N[C@@H](Cc1ccc(O)cc1)C(=O)N[C@@H](CO)C(=O)N[C@@H](CCCNC(=N)N)C(=O)N[C@@H](Cc1ccc(O)cc1)C(=O)N[C@@H](CCCNC(=N)N)C(=O)N[C@@H](CCCCN)C(=O)N[C@@H](CCC(N)=O)C(=O)N[C@@H](CCSC)C(=O)N[C@@H](C)C(=O)N[C@H](C(=O)N[C@@H](CCCCN)C(=O)N[C@@H](CCCCN)C(=O)N[C@@H](Cc1ccc(O)cc1)C(=O)N[C@@H](CC(C)C)C(=O)N[C@@H](C)C(=O)N[C@@H](C)C(=O)N[C@H](C(=O)N[C@@H](CC(C)C)C(=O)NCC(=O)N[C@@H](CCCCN)C(=O)N[C@@H](CCCNC(=N)N)C(=O)N[C@@H](Cc1ccc(O)cc1)C(=O)N[C@@H](CCCCN)C(=O)N[C@@H](CCC(N)=O)C(=O)N[C@@H](CCCNC(=N)N)C(=O)N[C@H](C(=O)N[C@@H](CCCCN)C(=O)N[C@@H](CC(N)=O)C(=O)N[C@@H](CCCCN)C(N)=O)C(C)C)C(C)C)C(C)C)[C@@H](C)O` [PACAP], which Ki is on record?
Its Ki is 0.0003 µM.

For `CC[C@H](C)[C@H](NC(=O)CNC(=O)[C@H](CC(=O)O)NC(=O)[C@@H](CCCN=C(N)N)NC(=O)[C@@H](N)Cc1cnc[nH]1)C(=O)N[C@@H](Cc1ccccc1)C(=O)N[C@H](C(=O)N[C@@H](CC(=O)O)C(=O)N[C@@H](CO)C(=O)N[C@@H](Cc1ccc(O)cc1)C(=O)N[C@@H](CO)C(=O)N[C@@H](CCCN=C(N)N)C(=O)N[C@@H](Cc1ccc(O)cc1)C(=O)N[C@@H](CCCN=C(N)N)C(=O)N[C@@H](CCCCN)C(=O)N[C@@H](CCC(N)=O)C(=O)N[C@@H](CCSC)C(=O)N[C@@H](C)C(=O)N[C@H](C(=O)N[C@@H](CCCCN)C(=O)N[C@@H](CCCCN)C(=O)N[C@@H](Cc1ccc(O)cc1)C(=O)N[C@@H](CC(C)C)C(=O)N[C@@H](C)C(=O)N[C@@H](C)C(=O)N[C@H](C(=O)N[C@@H](CC(C)C)C(N)=O)C(C)C)C(C)C)[C@@H](C)O` [[DArg2]PACAP(1-27)], which Ki is on record?
Its Ki is 0.5 µM.

Which Ki does the source give for `CCC(C)[C@H](N)C(=O)N[C@@H](Cc1ccccc1)C(=O)N[C@H](C(=O)N[C@@H](CC(=O)O)C(=O)N[C@@H](CO)C(=O)N[C@@H](Cc1ccc(O)cc1)C(=O)N[C@@H](CO)C(=O)N[C@@H](CCCN=C(N)N)C(=O)N[C@@H](Cc1ccc(O)cc1)C(=O)N[C@@H](CCCN=C(N)N)C(=O)N[C@@H](CCCCN)C(=O)N[C@@H](CCC(N)=O)C(=O)N[C@@H](CCSC)C(=O)N[C@@H](C)C(=O)N[C@H](C(=O)N[C@@H](CCCCN)C(=O)N[C@@H](CCCCN)C(=O)N[C@@H](Cc1ccc(O)cc1)C(=O)N[C@@H](CC(C)C)C(=O)N[C@@H](C)C(=O)N[C@@H](C)C(=O)N[C@H](C(=O)N[C@@H](CC(C)C)C(N)=O)C(C)C)C(C)C)[C@@H](C)O` (stereo partly specified) [PACAP(5-27)] (H-[Ile(3ξ)]FTDSYSRYRKQMAVKKYLAAVL-NH2) here?
Its Ki is 1 µM.

For `CC[C@H](C)[C@H](NC(=O)CNC(=O)[C@H](CC(N)=O)NC(=O)[C@H](CO)NC(=O)[C@@H](N)Cc1cnc[nH]1)C(=O)N[C@@H](Cc1ccccc1)C(=O)N[C@H](C(=O)N[C@@H](CC(=O)O)C(=O)N[C@@H](CO)C(=O)N[C@@H](Cc1ccc(O)cc1)C(=O)N[C@@H](CO)C(=O)N[C@@H](CCCNC(=N)N)C(=O)N[C@@H](Cc1ccc(O)cc1)C(=O)N[C@@H](CCCNC(=N)N)C(=O)N[C@@H](CCCCN)C(=O)N[C@@H](CCC(N)=O)C(=O)N[C@@H](CCSC)C(=O)N[C@@H](C)C(=O)N[C@H](C(=O)N[C@@H](CCCCN)C(=O)N[C@@H](CCCCN)C(=O)N[C@@H](Cc1ccc(O)cc1)C(=O)N[C@@H](CC(C)C)C(=O)N[C@@H](C)C(=O)N[C@@H](C)C(=O)N[C@H](C(=O)N[C@@H](CC(C)C)C(N)=O)C(C)C)C(C)C)[C@@H](C)O` [[Asn3]PACAP(1-27)], which Ki is on record?
The Ki was 4 µM.

How did the Ki turn out when “H-FTDSYSRYRKQMAVKKYLAAVLGKRYKQRV-NH2 [PACAP(6-35)]” was run?
The Ki was 0.3 µM.
